Test results taken from patent publication US3976763A, “Chlorpromazine assay” (Hoffmann-La Roche Inc., priority 1975, dated 1976).
Values belong to the compound of their own block, whether it stands above or below them.

Legend:
[1] = system: antibody in the antiserum of rabbit immunized by the CPZ-BSA immunogen; assay: Radioimmunoassay specificity: inhibition of 3H-CPZ binding to antibody; settings: for concentration required to produce a 50% inhibition of 3H-chlorpromazine-antibody binding, relative to chlorpromazine: multiple of the CPZ concentration; for binding by the antibody (in words): competition with labeled CPZ
Procedure: The antiserum of EXAMPLE 2 as used for the radioimmunoassay was diluted with normal rabbit serum which was diluted with phosphate-buffered saline, pH 7.4, at 1:10 dilution. To determine the antibody titre of antiserum, 0.1 ml. of various dilutions of the antiserum was incubated in an assay tube (10 × 75 mm) with 320 pg of ^3 H-CPZ approximately 7,000 dpm, at 4°C. overnight. The volume was adjusted to 0.5 ml. with phosphate-buffered salie, pH 7.4 which is the optimal pH for the assay. The antibody bound CPZ was separated from free CPZ by the addition of saturated ammonium sulfate which was adjusted to pH 7.4 with ammonium hydroxide as described by Farr, J. Infect. Dis. 103, 239 (1958). After two washings with 50% saturated ammonium sulfate, the precipitate was dissolved in 0.5 ml. of water. The content of the tube was transferred to a counting vial and the tube was then washed four times with 3 ml. of Riaflour. The 12 ml. washings were all collected in the vial. The radioactivity was then counted with a Beckman liquid scintillation counter. Thedilution of the antiserum chosen for further studies were 1:7,000.
Appropriate volume of phosphate-buffered saline, pH 7.4 was added to all the tubes containing 0.1 ml. of the antiserum to make a final incubation volume of 0.5 ml. To the tubes were added various quantities ranging from 100 ng. to 10 pg. (10 1) of CPZ, its derivatives, serotonin and dopamine. After a 15 minute preincubation, 10 l. of ^3 H-CPZ was added. The tubes were then incubated overnight at 4°C. followed by precipitation with ammonium sulfate.
Background and non-specific protein binding of ^3 H-CPZ were determined by excluding the antiserum from the incubation mixture. The counts representing the non-specific binding were then subtracted from all samples.
The specificity of the antibody in the antiserum of rabbit immunized by the CPZ-BSA immunogen was determined by incubating the antiserum with a number of CPz derivatives or the biologenic amines in the presence of labeled CPZ. […] CPZ substituted at C6, C7, or C8 with hydroxy group was not bound by the antibody to the same extent as CPZ. In order to obtain a 50% inhibition of ^3 H-CPZ-antibody complex formation, these hydroxylated derivatives of CPZ required concentrations which were 5-10 times that of CPZ. […] The 7hydroxy derivatives of Nor1 -CPZ or Nor2 CPZ likewise were poorly bound by the antibody. Another metabolic product which can be formed from CPZ is CPZ-N-oxide. […] Promazine, the dechlorinated derivative required about 8 times the concentration of CPZ to produce a 50% displacement of the labeled CPZ from the antibody.

[2] = Disposition of CPZ in rats: plasma level by radioimmunoassay; format: in vivo, Male Sprague-Dawley rats; settings: iv, rat, 10 mg/kg CPZ hydrochloride intravenously, after initial rapid decline
Procedure: To determine the plasma concentration of CPZ, aliquots of plasma from animals which received CPZ were diluted with normal rat plasma. To the assay tubes containing antiserum, phosphate-buffered saline, pH 7.4, ^3 H-CPZ and 10 l of unknown samples were added, and incubated at 4°C. overnight. Free CPZ was separated from the antibody bound CPZ by ammonium sulfate precipitation.
Male Sprague-Dawley rats weighing 210-240 g. were injected intravenously with 10 mg/kg of CPZ hydrochloride. In one group of 6 rats, 0.1 ml. of blood samples were taken from the tail into a heparinized capillary tube at varying time intervals following the injection. The plasma was separated by centrifugation and frozen until assayed. Other 48 rats were killed by decapitation at the same intervals as above, and the brain was removed, frozen on dry ice and then kept in a deep freezer at -80°C. until assayed.
The radioimmunoassay procedure of Example 3 was applied to the determination of CPZ and some minor metabolites in rat plasma and brain following intravenous administration of CPZ hydrochloride.

[3] = Disposition of CPZ in rats: brain level by radioimmunoassay; format: in vivo, Male Sprague-Dawley rats; settings: rat
Procedure: The extraction of CPZ from the brain homogenate was necessary as the compound bound to the tissue. The brain was homogenized with 4 volumes of 0.05 N HCl. To a 0.1 ml. aliquot of the brain homogenate, 0.05 ml. of 0.5 N NaOH and 1.5 ml. of petroleum ether containing 10% isopropyl alcohol were added. The tube was vortexed twice for 20 seconds and then centrifuged at 3000 r.p.m. at 8°C. for 10 minutes. The tube was dipped in a dry ice-acetone bath and the aqueous layer was frozen. The upper organic layer was then transferred to another tube and evaporated to dryness under vacuum. The residue was dissolved in an appropriate volume of 25% isopropyl alcohol. To the assay tube containing antiserum, phosphate-buffered saline, pH 7.4 and ^3 H-CPZ, 10 μl of unknown sample was added.

SMILES: CN(C)CCCN1c2ccccc2Sc2ccc(Cl)cc21 [CPZ, Chlorpromazine]
half-life [2]: ~4 h
concentration producing a 50% inhibition of binding of 3H-CPZ to the antibody ([1]; 320 pg 3H-CPZ, antiserum 1:7,000, 0.5 ml, pH 7.4, 4°C overnight): 118 pg
time to peak brain level of CPZ and metabolites ([3]; 10 mg/kg CPZ hydrochloride intravenously): Five
persistence of peak brain level ([3]; in vivo, iv, 10 mg/kg): 30 min

SMILES: C[N+](C)([O-])CCCN1c2ccccc2Sc2ccc(Cl)cc21 [CPZ-N-oxide]
binding by the antibody (in words) [1]: not bound to the antibody to any appreciable extent

SMILES: CN(C)CCCN1c2ccccc2[S+]([O-])c2ccc(Cl)cc21 (stereo not drawn) [chlorpromazine sulfoxide]
binding by the antibody (in words) [1]: not bound significantly
binding by the antibody (in words) ([1]; listed as CPZ-sulfoxide): not recognized by the antibody unless the concentrations were high

SMILES: CN(C)CCCN1c2ccccc2Sc2ccccc21 [promazine]
concentration required to produce a 50% inhibition of 3H-chlorpromazine-antibody binding, relative to chlorpromazine [1]: 5-10 times
concentration required to produce a 50% inhibition of 3H-chlorpromazine-antibody binding, relative to chlorpromazine ([1]; listed as Promazine): about 8 times

Further lines, with some results ahead:

concentration required to produce a 50% inhibition of 3H-chlorpromazine-antibody binding, relative to chlorpromazine [1]: 5-10 times
SMILES: CN(C)CCCN1c2ccc(O)cc2Sc2ccc(Cl)cc21 [7-hydroxychlorpromazine]

concentration required to produce a 50% inhibition of 3H-chlorpromazine-antibody binding, relative to chlorpromazine [1]: 5-10 times
SMILES: CN(C)CCCN1c2cc(O)ccc2Sc2ccc(Cl)cc21 [8-hydroxychlorpromazine]

binding by the antibody (in words) [1]: not bound significantly
SMILES: CNCCCN1c2ccccc2Sc2ccc(Cl)cc21 [nor1 -chlorpromazine]
binding by the antibody (in words) ([1]; listed as Nor1 -CPZ): bound by the antibody to a much lesser extent

binding by the antibody (in words) [1]: not bound significantly
SMILES: NCCCN1c2ccccc2Sc2ccc(Cl)cc21 [nor2 -chlorpromazine]
binding by the antibody (in words) ([1]; listed as Nor2 -CPZ): failed to recognize the compound unless the concentrations were extremely high
